The NIST ThermoML archive (doi:10.1021/je800981d)
Values joined by “and” are separate entries in the source; they are usually repeats but may differ in a detail not shown here. Identical values can stand only once.

Experiments:
[1] = Liquid
[2] = refractive index (Na D-line) (dimensionless); settings: 101.33 kPa, Liquid, Standard Abbe refractometry
[3] = xn = mol fraction of the nth substance listed; settings: 101 kPa, Liquid
[4] = refractive index (Na D-line) (dimensionless); xn = mol fraction of the nth substance listed; settings: 298.15 K, 101 kPa, Liquid, Standard Abbe refractometry

CCCO [propan-1-ol]
[1], 101 kPa
Settings	mass density [kg/m3]	speed of sound [m/s]	viscosity [mPa·s]
298.15 K	799.6	1207	2.017
313.15 K	787.4	1155	1.43
328.15 K	774.8	1105	1.041

Settings	refractive index
[2], 298.15 K	1.3831

CCOS(=O)(=O)[O-].CC[n+]1ccccc1 [1-ethylpyridinium ethyl sulfate] + CCO
[3]
Settings	mass density, 298.15 K [kg/m3]	mass density, 313.15 K [kg/m3]	mass density, 328.15 K [kg/m3]	speed of sound, 298.15 K [m/s]	speed of sound, 313.15 K [m/s]	speed of sound, 328.15 K [m/s]	viscosity, 298.15 K [mPa·s]	viscosity, 313.15 K [mPa·s]	viscosity, 328.15 K [mPa·s]
x2 = 0	1252	1242.1	1232.3	1711	1676	1641	126.3	57.6	38.6
x2 = 0.0476	1245.3	1235.3	1225.3	1700	1665	1631	103.3	50.3	34.14
x2 = 0.1993	1220.8	1210.8	1200.7	1661	1625	1591	58.4	33.9	22.38
x2 = 0.2992	1201.2	1190.9	1180.7	1630	1593	1558	40.3	23.51	15.2
x2 = 0.5009	1147.2	1136.4	1125.9	1546	1508	1472	17.27	11.39	8.015
x2 = 0.6033	1109.2	1098.4	1087.7	1491	1453	1388	10.79	7.07	5.198
x2 = 0.7023	1062	1051	1039.9	1428	1388	1350	6.63	4.8	3.642
x2 = 0.8016	999.9	988.1	976.6	1349	1308	1267	3.947	2.943	2.287
x2 = 0.899	915.5	903.3	890.1	1258	1214	1170	2.244	1.717	1.344
x2 = 0.9476	860.1	847.5	834.1	1206	1160	1113	1.641	1.261	0.987

[4]
Settings	refractive index
x2 = 0	1.50252
x2 = 0.0476	1.50313
x2 = 0.1993	1.49585
x2 = 0.2992	1.48987
x2 = 0.5009	1.47321
x2 = 0.6033	1.46152
x2 = 0.7023	1.44693
x2 = 0.8016	1.42734
x2 = 0.899	1.40078
x2 = 0.9476	1.38342

CCOS(=O)(=O)[O-].CC[n+]1ccccc1 [1-ethylpyridinium ethyl sulfate]
[1]
Settings	mass density, 101.33 kPa [kg/m3]	speed of sound, 101.33 kPa [m/s]	viscosity, 101 kPa [mPa·s]	viscosity, 101.33 kPa [mPa·s]
298.15 K	1252	1711	–	126.3
303.15 K	1248.7	1699	–	93
308.15 K	1245.4	1687	–	72.1
313.15 K	1242.1	1676	–	57.6
318.15 K	1238.8	1664	–	46.4
323.15 K	1235.6	1653	–	38.6
328.15 K	1232.3	1641	38.6	32.53
333.15 K	1229.1	1630	–	27.78
338.15 K	1225.9	1619	–	23.9
343.15 K	1222.7	1608	–	20.71

[2]
Settings	refractive index
298.15 K	1.50525 and 1.50252
303.15 K	1.50394
308.15 K	1.50258
313.15 K	1.5012
318.15 K	1.49976
323.15 K	1.4985
328.15 K	1.4972
333.15 K	1.49587
338.15 K	1.49454
343.15 K	1.49309

CCCO [propan-1-ol] + CCOS(=O)(=O)[O-].CC[n+]1ccccc1
[3], x1 = 1
Settings	mass density [kg/m3]	speed of sound [m/s]	viscosity [mPa·s]
298.15 K	799.6	1207	2.017
313.15 K	787.4	1155	1.43
328.15 K	774.8	1105	1.041

Settings	refractive index
[4], x1 = 1	1.3831

CCOS(=O)(=O)[O-].CC[n+]1ccccc1 [1-ethylpyridinium ethyl sulfate] + CCCO
[3]
Settings	mass density, 298.15 K [kg/m3]	mass density, 313.15 K [kg/m3]	mass density, 328.15 K [kg/m3]	speed of sound, 298.15 K [m/s]	speed of sound, 313.15 K [m/s]	speed of sound, 328.15 K [m/s]	viscosity, 298.15 K [mPa·s]	viscosity, 313.15 K [mPa·s]	viscosity, 328.15 K [mPa·s]
x2 = 0	1252	1242.1	1232.3	1711	1676	1641	126.3	57.6	38.6
x2 = 0.0814	1237.2	1227.4	1217.6	1689	1654	1619	95.2	48	32.49
x2 = 0.1994	1212.7	1202.7	1192.7	1649	1613	1578	62.7	34.23	23.31
x2 = 0.3084	1186.1	1176.1	1165.9	1608	1572	1537	43.6	25.21	17.27
x2 = 0.4035	1159	1148.5	1138.3	1565	1528	1493	30.03	18.31	12.21
x2 = 0.5077	1123.8	1113	1102.6	1516	1478	1440	20.12	12.91	8.898
x2 = 0.6013	1085.8	1074.8	1064.2	1466	1427	1388	13.68	9.161	6.523
x2 = 0.7016	1036.7	1025.2	1014.3	1409	1367	1327	8.84	6.131	4.494
x2 = 0.8004	976.9	965.3	954.1	1347	1304	1262	5.597	3.988	2.977
x2 = 0.9002	900.6	888.9	877.1	1279	1234	1189	3.483	2.507	1.874
x2 = 0.9521	852.4	840.3	828.1	1244	1195	1147	2.676	1.921	1.411

[4]
Settings	refractive index
x2 = 0	1.50525
x2 = 0.0814	1.50137
x2 = 0.1994	1.49499
x2 = 0.3084	1.48804
x2 = 0.4035	1.48081
x2 = 0.5077	1.47142
x2 = 0.6013	1.46126
x2 = 0.7016	1.44802
x2 = 0.8004	1.43181
x2 = 0.9002	1.411
x2 = 0.9521	1.39773

CCO [ethanol]
[1], 101 kPa
Settings	mass density [kg/m3]	speed of sound [m/s]	viscosity [mPa·s]
298.15 K	785.5	1146	1.082
313.15 K	772	1093	0.827
328.15 K	758.6	1043	0.641

Settings	refractive index
[2], 298.15 K	1.36023

CCO [ethanol] + CCOS(=O)(=O)[O-].CC[n+]1ccccc1
[3], x1 = 1
Settings	mass density [kg/m3]	speed of sound [m/s]	viscosity [mPa·s]
298.15 K	785.5	1146	1.082
313.15 K	772	1093	0.827
328.15 K	758.6	1043	0.641

Settings	refractive index
[4], x1 = 1	1.36023
